Source: patent US8299178B2, “Stable micelles formed with diblock copolymers of critical micelle concentration copolymer and temperature-sensitive copolymer” (National Tsing Hua University, priority 2009, dated 2012)

Tests used:
HeLa cells [1] = test: MTT cytotoxicity test using HeLa cells; format: cell-based, human
Procedure: The Dox activities of free Dox and Dox-mixed micelles were determined by performing cytotoxicity tests using HeLa cells (5×10^3 cell/mL). Cells that survived after incubation were estimated by a tetrazolium dye (MTT) assay. Dox-mPEG-b-P(NnPAAm-co-VIm) micelle was used for comparison. […] The IC50 of free Dox and Dox-loaded micelles are summary in Table 3.
Introducing mPEG-b-PLA into the micelle structure not only decreases mPEG-b-P(NIPAAm-co-VIm) quantity, decreases material cytotoxicity with a positive charge (i.e. VIm), but also stabilizes the micellar structure for biomedical use.

HeLa cells [2] = test: Internalization of Dox in HeLa cells by confocal laser scanning microscopy; format: cell-based, human; conditions: Dox ca. 10 μg/mL, one hour of incubation
Procedure: Dox accumulated in HeLa cells was localized using a Carl Zeiss LSM5 PASCAL confocal laser scanning microscopy (CLSM). The HeLa cells were seeded 1×10^5 per well on cover-slides for 24 h and were then treated with free Dox or Dox-mixed micelles. The concentration of Dox was ca. 10 μg/mL. Dox-mixed micelles were washed with PBS to remove untrapped Dox twice before use. After some time, the cells were washed twice with PBS, and then mounted on a slide with 4 wt % paraformaldehyde for CLSM observation. Fluorescence was observed by confocal microscope at 488 nm for excitation and an LP filter of 590 nm for Dox detection.
The time-dependent fluorescence intensity of Dox after Dox-mixed micelles incubated with human cervical epithelioid carcinoma (HeLa) cells was measured with free Dox (Dox-HCl) being used for comparison. […] Subsequently, the acidic endosomal compartment (ca. pH 5.5-5.0) induced Dox release due to mixed micelle dissociation by VIm protonation.

[3] = literature value; cited from earlier work

COc1cccc2c1C(=O)c1c(O)c3c(c(O)c1C2=O)C[C@@](O)(C(=O)CO)C[C@@H]3O[C@H]1C[C@H](N)[C@H](O)[C@H](C)O1 [Free Dox, doxorubicin]
Dox activity compared with the Dox-loaded micelles (HeLa cells [1]): more potent activity | localization of Dox in cells (HeLa cells [2]): accumulated in both the nucleus and the cytoplasm | pKa [3]: ~7
